From patent US20230271938A1, “BENZIMIDAZOLES FOR USE IN THE TREATMENT OF CANCER AND INFLAMMATORY DISEASES” (Capella Therapeutics, Inc., priority 2015, published 2023)

Columns and labels:
[1] = system: H1975 human NSCLC adenocarcinoma cells (drug-resistant mutant ERBB1, T790M in-cis with L858R); experiment: Cell proliferation assay, H1975; assay type: cell-based
Experimental: (§1) The biological activity of a test compound was determined using cell proliferation assays. The activity against wild-type ERBB 1 was determined using A431 human epidermoid carcinoma cells (ATCC) and human epidermal keratinocytes, neonatal, or HEKn cells (ATCC).
(§2) A431 cells were grown in DMEM (Invitrogen) supplemented with 10% FBS (Lonza), 1% penicillin-streptomycin, and 2 mM glutamine (Invitrogen). HEKn cells were grown in EPILIFE® (Invitrogen) supplemented with HKGS (Invitrogen). HCC827 and H1975 were cultured in RPMI1640 supplemented with 10% FBS (Lonza), 1% penicillin-streptomycin, and 2 mM glutamine (Invitrogen). Cells were maintained and propagated at 37° C. and 5% CO2 in a humidified cell culture incubator. Aliquots of cells from early passages were preserved for liquid nitrogen storage. Frozen vials of cells were thawed at 37° C. water bath. Cells were spun to remove freezing medium. The newly revived frozen cells were adapted in culture for 10 days before used for compound testing. Cells used in the assay were less than 20 subculture passages or 3 months in culture.
(§3) The test compounds were dissolved in dimethylsulfoxide (DMSO) and stored at -20° C. before testing. […] The cells were placed in a culture incubator overnight. Next day, test compounds in DMSO were added to the cells and placed back in the culture incubator for 72 hrs. In the meantime, the cell numbers at time zero of the compound treatment (T0) was measured by ENERCOUNT® (Codex BioSolutions). At the end of the compound treatment, the cell numbers were again measured by EnerCount as T72 values. The untreated controls (Ctrl) were cell numbers recorded from the 0.1% DMSO treatment. The percent growth inhibition by the test compound was calculated by the formula: (1- (T72-T0)/(Ctrl-T0)) x 100.
(§4) The results are summarized in Tables 1 and 2, wherein A represents a value no greater than 500 nM, B represents a value greater than 500 nM but no greater than 1 µM, C represents a value greater than 1 µM but no greater than 5 µM, and D represents a value greater than 5 µM; and wherein A′ represents a ratio of greater than 10, B′ represents a ratio of no greater than 10 but no less than 5, C′ represents a ratio of no greater than 5 but no less than 2, and D′ represents a ratio of no greater than 2.

[2] = system: human epidermal keratinocytes, neonatal, or HEKn cells (wild-type ERBB1); experiment: Cell proliferation assay, HEKn; assay type: cell-based; settings: Keratinocyte, 72 hrs
Experimental: as §1, §2, §3, §4

TXK = target: T1, TXK (Homo sapiens, UniProt P42681); experiment: Inhibition of TXK kinase; assay type: biochemical; settings: 1% DMSO
T1 sequence (P42681 1-527): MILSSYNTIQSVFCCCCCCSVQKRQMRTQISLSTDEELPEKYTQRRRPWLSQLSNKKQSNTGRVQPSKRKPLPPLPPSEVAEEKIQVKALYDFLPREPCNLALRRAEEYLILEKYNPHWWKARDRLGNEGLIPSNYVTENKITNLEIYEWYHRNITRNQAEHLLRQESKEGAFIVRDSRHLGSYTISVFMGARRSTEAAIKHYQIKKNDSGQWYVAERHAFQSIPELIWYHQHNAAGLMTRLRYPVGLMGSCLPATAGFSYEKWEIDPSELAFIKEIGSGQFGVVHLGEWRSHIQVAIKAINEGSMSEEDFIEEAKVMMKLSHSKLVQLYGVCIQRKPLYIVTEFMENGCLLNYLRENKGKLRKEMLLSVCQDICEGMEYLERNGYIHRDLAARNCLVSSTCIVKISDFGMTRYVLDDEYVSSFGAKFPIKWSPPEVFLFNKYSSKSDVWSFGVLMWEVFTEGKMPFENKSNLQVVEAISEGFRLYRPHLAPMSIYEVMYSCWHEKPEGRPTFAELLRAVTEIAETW
Excerpt: (§5) The Z′-LYTE® biochemical assay is a fluorescence-based, coupled-enzyme assay based on the differential sensitivity of phosphorylated and non-phosphorylated peptides to proteolytic cleavage. A peptide substrate for a kinase is labeled with two fluorophores, one at each end, to form a FRET pair.
(§6) In the primary reaction, the kinase transfers the gamma-phosphate of ATP to a single tyrosine, serine, or threonine residue in the synthetic FRET-peptide substrate. In the secondary reaction, a site-specific protease recognizes and cleaves non-phosphorylated FRET-peptides. Cleavage disrupts FRET between the donor and acceptor fluorophores on the FRET-peptide, whereas uncleaved, phosphorylated FRET-peptides maintain FRET. An inhibitory activity of a compound is thus determined from its effect on the cleavage of the synthetic FRET-peptide substrate.
(§7) Inhibition of BMX, BTK, ITK, and TXK kinases by a test compound is determined in 50 mM HEPES, pH 7.5, 0.01% BRIJ-35, 10 mM MgCl2, and 1 mM EGTA in the presence of 1% DMSO by volume.
(§8) Inhibition of BMX, BTK, PIK3C-D, ITK, TEC, and TXK kinases by compound A2 was measured using one of the assays described in Examples 2A and 3A.

BTK = BTK (Homo sapiens, UniProt Q06187); experiment: Inhibition of BTK kinase; assay type: biochemical; settings: 1% DMSO
Excerpt: as §5, §6, §7, §8

[3] = system: HCC827 human NSCLC adenocarcinoma cells (mutant ERBB1, deletion of E746-A759 in exon 19); experiment: Cell proliferation assay, HCC827; assay type: cell-based
Experimental: as §1, §2, §3, §4

PIK3C-D = PIK3C-D (Homo sapiens, UniProt O00329); experiment: Inhibition of PIK3C-D kinase; assay type: biochemical
Excerpt: as §5, §6
Binding of an ALEXA FLUOR® conjugate or “tracer” to a kinase is detected by addition of a Eu-labeled anti-tag antibody. […] An inhibitory activity of a compound is thus determined from the extent of the FRET signal loss. Inhibition of ITK and TEC kinases by a test compound is determined in the presence of 1% DMSO.
as §8

Sequence of PIK3C-D (O00329 whole entry): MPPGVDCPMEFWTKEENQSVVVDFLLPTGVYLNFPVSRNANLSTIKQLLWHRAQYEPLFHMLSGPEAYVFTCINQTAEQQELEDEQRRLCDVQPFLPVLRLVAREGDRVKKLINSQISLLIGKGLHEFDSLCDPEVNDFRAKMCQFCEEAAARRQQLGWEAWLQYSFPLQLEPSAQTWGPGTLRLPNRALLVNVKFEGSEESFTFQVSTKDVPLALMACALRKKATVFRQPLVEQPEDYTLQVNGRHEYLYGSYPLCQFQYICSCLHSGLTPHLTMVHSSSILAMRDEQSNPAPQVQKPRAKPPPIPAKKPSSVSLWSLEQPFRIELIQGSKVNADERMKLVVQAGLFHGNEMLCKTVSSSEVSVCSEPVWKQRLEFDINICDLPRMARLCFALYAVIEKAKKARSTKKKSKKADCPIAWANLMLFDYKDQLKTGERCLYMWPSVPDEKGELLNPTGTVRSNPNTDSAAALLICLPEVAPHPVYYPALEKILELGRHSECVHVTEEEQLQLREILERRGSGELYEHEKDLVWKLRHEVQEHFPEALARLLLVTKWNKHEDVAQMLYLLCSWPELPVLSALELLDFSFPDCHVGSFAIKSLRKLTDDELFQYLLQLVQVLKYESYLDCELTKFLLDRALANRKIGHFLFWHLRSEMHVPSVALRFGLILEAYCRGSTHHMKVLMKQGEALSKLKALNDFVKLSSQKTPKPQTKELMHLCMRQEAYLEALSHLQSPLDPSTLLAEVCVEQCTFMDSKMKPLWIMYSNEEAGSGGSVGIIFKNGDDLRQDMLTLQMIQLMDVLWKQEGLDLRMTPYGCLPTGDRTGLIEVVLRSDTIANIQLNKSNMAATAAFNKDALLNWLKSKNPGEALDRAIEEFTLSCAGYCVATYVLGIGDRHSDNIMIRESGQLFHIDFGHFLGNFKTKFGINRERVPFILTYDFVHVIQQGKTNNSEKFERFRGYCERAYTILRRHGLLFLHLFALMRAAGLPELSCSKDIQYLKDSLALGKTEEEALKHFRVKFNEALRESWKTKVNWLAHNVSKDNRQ
Sequence of PIK3C-D (P27986 whole entry partner): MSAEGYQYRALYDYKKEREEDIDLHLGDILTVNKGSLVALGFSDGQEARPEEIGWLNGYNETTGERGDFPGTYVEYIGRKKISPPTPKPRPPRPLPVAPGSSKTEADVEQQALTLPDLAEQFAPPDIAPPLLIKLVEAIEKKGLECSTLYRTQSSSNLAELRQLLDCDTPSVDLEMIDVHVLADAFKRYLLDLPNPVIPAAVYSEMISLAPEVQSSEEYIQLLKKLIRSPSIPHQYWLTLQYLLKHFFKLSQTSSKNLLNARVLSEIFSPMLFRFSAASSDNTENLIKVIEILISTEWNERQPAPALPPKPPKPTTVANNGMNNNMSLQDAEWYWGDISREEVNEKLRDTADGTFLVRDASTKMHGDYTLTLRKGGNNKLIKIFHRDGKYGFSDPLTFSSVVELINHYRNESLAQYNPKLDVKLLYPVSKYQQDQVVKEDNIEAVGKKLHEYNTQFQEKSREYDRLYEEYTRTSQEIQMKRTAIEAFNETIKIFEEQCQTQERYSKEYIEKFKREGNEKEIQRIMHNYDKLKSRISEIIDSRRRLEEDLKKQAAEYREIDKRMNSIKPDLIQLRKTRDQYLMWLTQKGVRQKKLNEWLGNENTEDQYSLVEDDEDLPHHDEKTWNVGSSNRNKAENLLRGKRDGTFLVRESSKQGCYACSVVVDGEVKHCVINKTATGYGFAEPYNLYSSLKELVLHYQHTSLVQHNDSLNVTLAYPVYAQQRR
Sequence of BTK (Q06187 whole entry): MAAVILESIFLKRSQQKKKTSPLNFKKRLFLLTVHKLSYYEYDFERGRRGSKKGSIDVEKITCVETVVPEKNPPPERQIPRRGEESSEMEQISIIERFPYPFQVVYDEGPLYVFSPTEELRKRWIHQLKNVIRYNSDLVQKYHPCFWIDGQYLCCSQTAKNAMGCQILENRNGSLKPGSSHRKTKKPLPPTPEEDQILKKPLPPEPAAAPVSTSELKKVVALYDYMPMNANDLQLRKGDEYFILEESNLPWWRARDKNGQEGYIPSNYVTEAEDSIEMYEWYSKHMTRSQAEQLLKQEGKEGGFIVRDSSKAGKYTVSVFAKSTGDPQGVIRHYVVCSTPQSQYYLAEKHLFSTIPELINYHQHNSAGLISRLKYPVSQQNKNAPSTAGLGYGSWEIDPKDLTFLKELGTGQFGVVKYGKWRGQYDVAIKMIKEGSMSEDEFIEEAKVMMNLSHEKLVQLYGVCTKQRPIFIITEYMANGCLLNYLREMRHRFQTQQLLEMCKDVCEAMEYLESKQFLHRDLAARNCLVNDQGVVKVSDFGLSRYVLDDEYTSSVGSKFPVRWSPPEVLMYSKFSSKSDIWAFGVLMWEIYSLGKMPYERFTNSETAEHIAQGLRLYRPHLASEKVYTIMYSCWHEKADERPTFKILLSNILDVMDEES

- GI50 ([1]; Homo sapiens, NCI-H1975, H1975 cells, 72 hrs): < 500 nM
- IC50 (TXK): ≤ 10 nM
- IC50 (BTK): ≤ 10 nM
- GI50 ([3]; Homo sapiens, HCC827 cells, 72 hrs): < 500 nM
- IC50 (PIK3C-D): ≤ 10 nM
Structure (SMILES): C=CC(=O)N1CCCC[C@@H](n2c(NC(=O)c3ccnc(C)c3)nc3cccc(OC4CCN(C(C)=O)CC4)c32)C1 [Compound A2, (R)-N-(7-((1-acetylpiperidin-4-yl)oxy)-1-(1-acryloylazepan-3-yl)-1H-benzo[d]imidazol-2-yl)-2-methylisonicotinamide]
- Ratio (Wild-type ERBB1/Mutant ERBB1) A431/H1975 ([1]; GI50 ratio A431/H1975): B′ (B′ represents a ratio of no greater than 10 but no less than 5)
- Ratio (Wild-type ERBB1/Mutant ERBB1) HEKn/H1975 ([1]; GI50 ratio HEKn/H1975): A′ (A′ represents a ratio of greater than 10)
- GI50 [2]: > 5000 nM
- Inhibition (TXK): A (A represents a value no greater than 10 nM or no less than 90% inhibition)
- Inhibition (BTK): A (A represents a value no greater than 10 nM or no less than 90% inhibition)
- Ratio (Wild-type ERBB1/Mutant ERBB1) A431/HCC827 ([3]; GI50 ratio A431/HCC827): A′ (A′ represents a ratio of greater than 10)
- Ratio (Wild-type ERBB1/Mutant ERBB1) HEKn/HCC827 ([3]; GI50 ratio HEKn/HCC827): A′ (A′ represents a ratio of greater than 10)
- Inhibition (PIK3C-D): A (A represents a value no greater than 10 nM or no less than 90% inhibition)
